Test [1] addresses T1, human thyroid receptor beta ligand-binding domain (LBD) (Homo sapiens, UniProt P10828).
T1 construct: purchased Invitrogen
T1 sequence (P10828 217-461 limits assumed): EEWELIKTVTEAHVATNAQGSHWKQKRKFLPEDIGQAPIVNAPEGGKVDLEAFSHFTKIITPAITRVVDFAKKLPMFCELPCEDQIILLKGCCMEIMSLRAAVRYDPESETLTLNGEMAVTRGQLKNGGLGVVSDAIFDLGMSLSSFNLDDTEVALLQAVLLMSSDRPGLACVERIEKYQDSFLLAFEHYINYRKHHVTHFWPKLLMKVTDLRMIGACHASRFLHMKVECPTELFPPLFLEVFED
Put plainly: TR-FRET thyroid receptor beta coactivator assay (THR biochemical assay, Assay 1). The conditions noted are these: for pEC50: THR-beta, TR-FRET coactivator assay, read-out: Activity category Assay 1 (EC50, THR-beta agonist); for Emax: Table 5, Assay 1, THRβ, read-out: Activity category Assay 1 THRβ (Emax). The method, boiled down:
(§1)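 GST-tagged human TRβ or TRα LBD, 1 nM final (stated for β), with fluorescein-SRC2-2 coactivator peptide (200 nM) and Tb-anti-GST antibody (2 nM). Agonists serially diluted, 1% DMSO final. 1 h incubation at rt in the dark; TR-FRET read as rise in fluorescein and drop in terbium emission.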

Test [2] concerns the target T2, THR beta (Homo sapiens, UniProt P10828).
T2 construct: expressed in transfected cells; host or cells: HEK293T (ATCC CRL-3216)
T2 sequence (P10828 1-461): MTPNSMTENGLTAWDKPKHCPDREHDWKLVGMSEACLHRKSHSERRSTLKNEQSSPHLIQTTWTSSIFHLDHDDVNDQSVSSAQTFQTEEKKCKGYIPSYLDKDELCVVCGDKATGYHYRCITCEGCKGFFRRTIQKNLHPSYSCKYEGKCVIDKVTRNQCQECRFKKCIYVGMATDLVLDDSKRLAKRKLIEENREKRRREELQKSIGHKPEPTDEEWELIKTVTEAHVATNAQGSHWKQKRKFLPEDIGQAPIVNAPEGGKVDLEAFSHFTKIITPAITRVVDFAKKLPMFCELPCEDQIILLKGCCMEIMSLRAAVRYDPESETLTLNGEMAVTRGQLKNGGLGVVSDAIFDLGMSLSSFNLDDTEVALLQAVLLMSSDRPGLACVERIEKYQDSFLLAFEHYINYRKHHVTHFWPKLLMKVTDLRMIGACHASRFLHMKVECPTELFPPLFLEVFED
T2 sequence (P19793 1-462 partner): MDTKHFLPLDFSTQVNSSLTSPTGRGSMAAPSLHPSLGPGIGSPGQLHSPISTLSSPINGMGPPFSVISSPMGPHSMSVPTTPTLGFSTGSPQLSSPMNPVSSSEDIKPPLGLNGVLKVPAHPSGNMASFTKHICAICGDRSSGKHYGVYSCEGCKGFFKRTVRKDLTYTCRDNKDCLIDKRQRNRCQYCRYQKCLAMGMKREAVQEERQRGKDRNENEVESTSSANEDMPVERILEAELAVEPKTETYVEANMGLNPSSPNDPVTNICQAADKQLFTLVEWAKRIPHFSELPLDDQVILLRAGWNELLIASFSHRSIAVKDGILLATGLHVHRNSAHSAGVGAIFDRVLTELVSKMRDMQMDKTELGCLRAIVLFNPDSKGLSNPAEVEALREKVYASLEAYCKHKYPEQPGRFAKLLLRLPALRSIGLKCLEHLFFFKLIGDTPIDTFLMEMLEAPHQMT
Briefly: HEK293T THR beta/RXR luciferase reporter assay (Assay 2). It is filed as cell-based. The conditions noted are these: for Emax: HEK-293T, Table 5, Assay 2, THRβ, read-out: Activity category Assay 2 THRβ (Emax); for pEC50: THR-beta, HEK293T reporter assay, read-out: Activity category Assay 2 (EC50, THR-beta agonist). In outline: (§2)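 HEK293T cells transiently transfected with TRE-luciferase reporter, RXR, and THR alpha or THR beta plasmid; ten five-fold compound dilutions from DMSO added for 18-24 h. One-Glo luminescence read; percent agonism normalized between negative and positive controls.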
A general note: A reporter such as luciferase makes a cellular process visible.

Test [3] addresses T3, THR alpha (Homo sapiens, UniProt P10827).
T3 construct: expressed in transfected cells; host or cells: HEK293T (ATCC CRL-3216)
T3 sequence (P10827 1-410 isoform P10827-2): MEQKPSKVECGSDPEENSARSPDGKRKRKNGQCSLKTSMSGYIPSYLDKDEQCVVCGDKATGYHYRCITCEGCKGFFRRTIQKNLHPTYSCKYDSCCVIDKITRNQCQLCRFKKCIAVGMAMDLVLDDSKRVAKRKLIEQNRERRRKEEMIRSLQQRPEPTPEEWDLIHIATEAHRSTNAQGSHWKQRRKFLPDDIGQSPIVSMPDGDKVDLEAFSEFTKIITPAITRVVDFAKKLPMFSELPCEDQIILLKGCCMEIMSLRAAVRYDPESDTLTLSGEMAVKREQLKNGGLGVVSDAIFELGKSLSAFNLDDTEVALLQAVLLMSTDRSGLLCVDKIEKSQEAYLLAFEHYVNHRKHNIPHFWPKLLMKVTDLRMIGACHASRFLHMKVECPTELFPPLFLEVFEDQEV
T3 sequence (P19793 1-462 partner): T2 sequence (P19793 1-462 partner)
Briefly: HEK293T THR alpha/RXR luciferase reporter assay (Assay 2). The class given is cell-based. Conditions: Assay 2; for Emax: HEK-293T, Table 5, THRα, read-out: Activity category Assay 2 THRα (Emax); for pEC50: Table 4, THR-alpha, read-out: Activity category Assay 2 (EC50, THR-alpha agonist activity). The method, boiled down:
as §2

The target of test [4] is T4, human thyroid receptor alpha ligand-binding domain (LBD) (Homo sapiens, UniProt P10827).
T4 construct: purchased Invitrogen
Briefly: TR-FRET thyroid receptor alpha coactivator assay (THR biochemical assay, Assay 1). Conditions: for pEC50: Table 4, THR-alpha, read-out: Activity category Assay 1 (EC50, THR-alpha agonist activity); for Emax: Table 5, THRα, read-out: Activity category Assay 1 THRα (Emax). The method, boiled down:
as §1
(TR-FRET usually uses a lanthanide donor and a delayed reading to cut background.)

pEC50: −log10 of the molar value.

With `Nc1nn(-c2cc(Cl)c(Oc3cc(-c4cccc(OC(F)F)c4)c(=O)[nH]n3)c(Cl)c2)c(=O)[nH]c1=O` [Compound 118], the pEC50 (as a rule, the negative decadic logarithm of the EC50, by convention in mol/L) in test [1] is greater than 7.30; in test [2], greater than 7.30; in test [3], 6.60 to 7.30; in test [4] it was 6.60 to 7.30. In addition, the Emax – broadly, the greatest response seen or fitted, relative to the assay's reference – in test [1] is 50 to 75%; in test [2] it was 50 to 75%; in test [3], 50 to 75%; in test [4], less than 50%.
On to `Nc1nn(-c2cc(Cl)c(Oc3cc(-c4ccccc4)c(=O)[nH]n3)c(Cl)c2)c(=O)[nH]c1=O` [Compound 63, 6-amino-2-[3,5-dichloro-4-[(6-hydroxy-5-phenylpyridazin-3-yl)oxy]phenyl]-4H-1,2,4-triazine-3,5-dione], for which the negative-log EC50 (pEC50) in test [1] is 6.60 to 7.30; in test [2], 6.60 to 7.30; in test [3], 6.00 to 6.60; in test [4], 6.00 to 6.60. For the same compound, the Emax was less than 50% in test [1], greater than 75% in test [2], 50 to 75% in test [3] and less than 50% in test [4].
In the case of `O=c1cc(-c2ccc3c(c2)CCCC3)c(Oc2c(Cl)cc(-n3ncc(=O)[nH]c3=O)cc2Cl)n[nH]1` [Compound 91-A, 2-(3,5-dichloro-4-((6-oxo-4-(5,6,7,8-tetrahydronaphthalen-2-yl)-1,6-dihydropyridazin-3-yl)oxy)phenyl)-1,2,4-triazine-3,5(2H,4H)-dione], the pEC50 in test [1] was greater than 7.30; in test [2], 6.60 to 7.30; in test [3], less than 5.00; in test [4], 4.60 to 6.00. Besides, the Emax in test [1] is less than 50%; in test [2] it was 50 to 75%; in test [3], less than 50%; in test [4], less than 50%.
As to `Cc1cccc(-c2cc(Oc3c(Cl)cc(-n4nc(N)c(=O)[nH]c4=O)cc3Cl)n[nH]c2=O)c1F` [Compound 64, 6-amino-2-(3,5-dichloro-4-[[5-(2-fluoro-3-methylphenyl)-6-oxo-1H-pyridazin-3-yl]oxy]phenyl)-4H-1,2,4-triazine-3,5-dione], the pEC50 in test [1] was greater than 7.30; in test [2], 6.60 to 7.30; in test [3] it was 6.00 to 6.60; in test [4] it was 6.00 to 6.60. Also, the Emax is less than 50% in test [1], 50 to 75% in test [2], less than 50% in test [3] and less than 50% in test [4].
Consider `CC(C)Cc1c[nH]c2ccc(Oc3c(Cl)cc(-n4nc(C#N)c(=O)[nH]c4=O)cc3Cl)cc12` [Compound 49, 2-(3,5-dichloro-4-[[3-(2-methylpropyl)-1H-indol-5-yl]oxy]phenyl)-3,5-dioxo-4H-1,2,4-triazine-6-carbonitrile], for which the pEC50 in test [1] was greater than 7.30; in test [2] it was 6.00 to 6.60; in test [3], 6.00 to 6.60; in test [4], greater than 7.30. Moreover, the Emax is less than 50% in test [1], greater than 75% in test [2], less than 50% in test [3] and less than 50% in test [4].
Regarding `Nc1nn(-c2cc(Cl)c(Oc3cc(C(O)C4CCCC4)c(=O)[nH]n3)c(Cl)c2)c(=O)[nH]c1=O` (stereo not shown) [Compound 77, 6-amino-2-[3,5-dichloro-4-([5-[cyclopentyl(hydroxy)methyl]-6-oxo-1H-pyridazin-3-yl]oxy)phenyl]-4H-1,2,4-triazine-3,5-dione], the pEC50 was 6.60 to 7.30 in test [1], 6.60 to 7.30 in test [2], 6.00 to 6.60 in test [3] and 6.00 to 6.60 in test [4]. In addition, the Emax in test [1] was less than 50%; in test [2], greater than 75%; in test [3], greater than 75%; in test [4], 50 to 75%.
For `Nc1nn(-c2cc(Cl)c(Oc3cc(Cc4ccc(O)cn4)c(=O)[nH]n3)c(Cl)c2)c(=O)[nH]c1=O` [Compound 161, 6-amino-2-[3,5-dichloro-4-([5-[(5-hydroxypyridin-2-yl)methyl]-6-oxo-1H-pyridazin-3-yl]oxy)phenyl]-4H-1,2,4-triazine-3,5-dione], the pEC50 in test [1] was 6.00 to 6.60; in test [2] it was 5.00 to 6.00; in test [3], less than 5.00; in test [4], 6.00 to 6.60. Also, the Emax in test [1], in test [2], in test [3] and in test [4] was less than 50% in each case.
In the case of `Nc1nn(-c2cc(Cl)c(Oc3n[nH]c(=O)cc3-c3cc4ccccc4cn3)c(Cl)c2)c(=O)[nH]c1=O` [Compound 134], the pEC50 in test [1] was greater than 7.30; in test [2], 6.00 to 6.60; in test [3] it was less than 5.00; in test [4] it was 6.00 to 6.60. The Emax is less than 50% in test [1], 50 to 75% in test [2], less than 50% in test [3] and less than 50% in test [4].
On to `C[C@H]1C[C@@H](c2cc(Oc3c(Cl)cc(-n4nc(N)c(=O)[nH]c4=O)cc3Cl)n[nH]c2=O)C1` (single isomer, unassigned) [Compound 86-B, 6-Amino-2-(3,5-dichloro-4-((5-((1s,3s)-3-methylcyclobutyl)-6-oxo-1,6-dihydropyridazin-3-yl)oxy)phenyl)-1,2,4-triazine-3,5(2H,4H)-dione], for which the pEC50 in test [1] was 6.60 to 7.30; in test [2], 6.00 to 6.60; in test [3], 5.00 to 6.00; in test [4], 4.60 to 6.00. Also, the Emax in test [1] is less than 50%; in test [2], greater than 75%; in test [3], less than 50%; in test [4] it was less than 50%.
As for `Nc1nn(-c2cc(Cl)c(Oc3n[nH]c(=O)cc3-c3ccccc3)c(Cl)c2)c(=O)[nH]c1=O` [Compound 63-A, 6-amino-2-(3,5-dichloro-4-((6-oxo-4-phenyl-1,6-dihydropyridazin-3-yl)oxy)phenyl)-1,2,4-triazine-3,5(2H,4H)-dione], the pEC50 in test [1] is less than 4.60; in test [2], less than 5.00; in test [3], less than 5.00; in test [4] it was less than 4.60. Further, the Emax in test [1], in test [2], in test [3] and in test [4] was less than 50% each time.
Take `Cc1cc(-n2nc(N)c(=O)[nH]c2=O)cc(C)c1Cc1ccc2[nH]c(=O)n(C(C)C)c2c1` [Compound 149, 6-amino-2-(4-((3-isopropyl-2-oxo-2,3-dihydro-1H-benzo[d]imidazol-5-yl)methyl)-3,5-dimethylphenyl)-1,2,4-triazine-3,5(2H,4H)-dione]: the pEC50 in test [1], in test [2], in test [3] and in test [4] was greater than 7.30 throughout. Also, the Emax in test [1] is less than 50%; in test [2], greater than 75%; in test [3], greater than 75%; in test [4] it was less than 50%.

Source of the values: patent US12180192B2, “Modulators of THR-β and methods of use thereof” (ALIGOS THERAPEUTICS, INC., priority 2019, dated 2024).
